Patent publication US8486916B2, “Medicine, food and drink or feed containing sphingomyelin” (Megmilk Snow Brand Co., Ltd., priority 2005, dated 2013)

Experiments:
[1] = system: carrageenin-induced edema; assay: Carrageenin-induced footpad edema method; format: in vivo, Wistar rats; conditions: 100 mg/kg oral; 5 hours after λ-carrageenin injection
Procedure: The anti-inflammatory effect of sphingomyelin was tested by a carrageenin-induced footpad edema method. Specifically, a test subject shown in Table 15 was suspended in an aqueous solution containing 0.5% carboxymethylcellulose and orally administered (100 mg/kg) to male Wistar rats (body weight: 110 to 130 g, 8 individuals per group) according to the method of Winter et al. (Proceedings of the Society for Experimental Biology & Medicine, vol. 111, pp. 554, 1962). […] An aqueous solution containing 0.5% carboxymethylcellulose and no test substance was administered to rats in a control group. A rate of increase in footpad volume (V0) attributed to the injection of λ-carrageenin was measured in the control group in the same way as above. An carrageenin-induced edema inhibition rate (%) was calculated according to the calculation formula: (V0−V1)×100/V0 and used as the anti-inflammatory activity of the test substance. A higher value of this inhibition rate indicates higher anti-inflammatory activity.

cholera toxin = conditions: in vivo
[2] = system: sialomucin content in the saliva; assay: Effect of promoting sialomucin secretion: sialomucin content in rat saliva; format: in vivo, SD rats; conditions: 7th day of experimental diet containing 1% of the substance
Procedure: Seven-week-old male SD rats (manufactured by Charles River Laboratories, Japan, Inc) were raised under conditions involving humidity of 60%, room temperature of 24° C., and light-dark (12 hour/12 hour) control. All the rats were preliminarily raised for 1 week with a standard diet and then divided into 3 groups each containing 12 individuals. These groups were allowed to freely take their respective experimental diets and raised for 1 week. Rat saliva was collected on the 7th day after the administration of experimental diets. A sialomucin content in the saliva was measured by high-performance liquid chromatography. […] In this context, a sialomucin content in the saliva was measured by the following method: 0.2 ml of a Nembutal solution was intramuscularly injected to rats fasted for 2 hours or longer. After anesthesia, a solution of pilocarpine hydrochloride serving as a saliva secretion promoter was intramuscularly injected thereto. […] A sialomucin content in the sialomucin fraction was quantified with a Sialic Acid Fluorescence Labeling Kit (Takara Bio Inc.). […] Free N-acetyl sialic acid or O-acetylated sialic acid was reacted at 55° C. for 2.5 hours by the addition of a DMB reagent as a fluorescence labeling agent and then quantified by high-performance liquid chromatography.

| Compound | Inhibition rate [1] [%] | Inhibition rate (cholera toxin) [%] | Sialomucin content [2] [µg/µL] |
| --- | --- | --- | --- |
| CC(=O)N[C@H]1[C@H]([C@H](O)[C@H](O)CO)OC(O)(C(=O)O)C[C@@H]1O (stereo partly shown) [Sialic acid (derived from milk), Sialic acid] | 38.1 | – | – |
| COc1ccc2c(c1)c(CC(=O)O)c(C)n2C(=O)c1ccc(Cl)cc1 [Indomethacin] | 37.5 | – | – |
| sialyllactose [SL, reference compound] | – | 37.9 ± 2.9 | 24.9 ± 3.1 |
